Assay results from paper PMC7501296, “Rapid and direct control of target protein levels with VHL-recruiting dTAG molecules” (Nature Communications, 2020).
Where “and” joins values, the source holds several entries; their conditions need not be identical. Equal values may be shown once. Read-outs that look alike come from different tables or passages of the source.

Experiments:
[1] = Pharmacokinetic evaluation in mice; type: in vivo, C57BL/6J male mice; conditions: for exposure (AUCinf) / half-life (T1/2): intraperitoneal administration at 10 mg kg^−1
Text: For IP injections, dTAG-13 and dTAG^V-1 were formulated by dissolving into DMSO and then diluting with 20% solutol (Sigma): 0.9% sterile saline (Moltox) (w:v) with the final formulation containing 5% DMSO. […] Formulations were stable at room temperature for 7 days. For IV injections, dTAG-13 and dTAG^V-1 were formulated by dissolving into DMSO and then diluting with 5% solutol (Sigma): 0.9% sterile saline (Moltox) (w:v) with the final formulation containing 5% DMSO. All procedures for PK studies were compliant with ethical regulations for animal testing and research, and were approved by and performed in accordance with standards of the Institute Animal Care and Use Committee (IACUC) at Scripps Florida. Housing conditions for mice at Scripps Florida were as follows: lights on = 7 AM, lights off = 7 PM, average ambient temperature = 72 °F, and average humidity = 45%. PK was assessed in 8-week-old C57BL/6J male mice (Jackson Laboratory, #000664) with blood collected at 0.08, 0.25, 0.5, 1, 2, 4, 6, and 8 h (2 mg kg^−1 dTAG-13 intravenous (IV) tail vein, 10 mg kg^−1 dTAG-13 intraperitoneal (IP), and 2 mg kg^−1 dTAG^V-1 IV tail vein administrations) and 0.25, 0.5, 1, 2, 4, 6, 8, 24 and 48 h (2 mg kg^−1 dTAG^V-1 IP and 10 mg kg^−1 dTAG^V-1 IP administrations). Plasma was generated by centrifugation and plasma concentrations were determined by LC-MS/MS following the mass transition 49600à340 AMU. PK parameters were calculated using Phoenix WinNonlin to determine peak plasma concentration (Cmax), oral bioavailability (%F), exposure (AUC), half-life (t1/2), clearance (CL), and volume of distribution (Vd).

[2] = molecular target: T1, luciferase-FKBP12^F36V (Homo sapiens, UniProt P62942, F37V); assay: Pharmacodynamic evaluation: bioluminescence of MV4;11 luc-FKBP12F36V cells in mice; type: in vivo, mice (NSG); design: Total flux for each mouse: unit not given here; conditions: for Total flux for each mouse: single mice
T1 construct: luciferase (fusion partner); expressed in transfected cells; host or cells: MV4;11 cells transplanted into NSG mice
Text: For IP injections, dTAG-13 and dTAG^V-1 were formulated by dissolving into DMSO and then diluting with 20% solutol (Sigma): 0.9% sterile saline (Moltox) (w:v) with the final formulation containing 5% DMSO. […] Formulations were stable at room temperature for 7 days. For IV injections, dTAG-13 and dTAG^V-1 were formulated by dissolving into DMSO and then diluting with 5% solutol (Sigma): 0.9% sterile saline (Moltox) (w:v) with the final formulation containing 5% DMSO.
All procedures for PD studies were compliant with ethical regulations for animal testing and research, and were approved by and performed in accordance with standards of the IACUC at Dana–Farber Cancer Institute. Housing conditions for mice at Dana–Farber Cancer Institute were as follows: lights on = 6 AM, lights off = 6 PM, average ambient temperature = 72 °F, and average humidity = 35–55%. Evaluation of degradation of luciferase in vivo was performed using MV4;11 luc-FKBP12^F36V cells and bioluminescent measurements[6],[48]. In brief, 250,000 viable MV4;11 luc-FKBP12^F36V cells were transplanted by tail-vein injection in 8-week-old immunocompromised female mice (NOD.Cg-Prkdc^scidIl2rg^tm1Wjl/SzJ, NSG; Jackson Laboratory, #005557). Bioluminescent measurements were performed following IP injection of 75 mg kg^−1 D-Luciferin (Promega). Mice were then anesthetized with 2−3% isoflurane, imaged on an IVIS Spectrum (Caliper Life Sciences), and total body bioluminescence was determined using a standardized region of interest. Two and seven days after tail-vein injection, bioluminescent measurements were performed to confirm engraftment. […] For treatments, compounds were formulated as described above, administered via IP injection and bioluminescent measurements were performed daily as described in Fig. 2d, beginning 8 days after tail-vein injection.

[3] = Baseline (day 0, before treatment), MV4;11 luc-FKBP12F36V
[4] = No treatment (day 4), 28 h after third and final treatment
[5] = Treatment #1 (day 1), 4 h after 35 mg kg^−1 IP
[6] = Treatment #2 (day 2), 4 h after 35 mg kg^−1 IP
[7] = Treatment #3 (day 3), 4 h after 35 mg kg^−1 IP
[8] = male, C57BL/6J, mouse, plasma, IP, 2 mg kg-1
[9] = male, C57BL/6J, mouse, plasma, IP, 10 mg kg-1
[10] = male, C57BL/6J, mouse, plasma, IV, 2 mg kg-1

T1 sequence (P62942 2-108 F37V limits assumed): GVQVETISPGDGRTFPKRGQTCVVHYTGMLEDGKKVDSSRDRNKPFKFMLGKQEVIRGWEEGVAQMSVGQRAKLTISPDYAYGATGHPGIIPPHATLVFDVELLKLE

CC[C@H](C(=O)N1CCCC[C@H]1C(=O)O[C@H](CCc1ccc(OC)c(OC)c1)c1ccccc1OCC(=O)NCCCCCCOc1cccc2c1C(=O)N(C1CCC(=O)NC1=O)C2=O)c1cc(OC)c(OC)c(OC)c1 (some centres unmarked) [dTAG-13]
AUCinf ([1]; IP, 10 mg kg-1): 6140 ng·h/mL
AUClast ([1]; IP, 10 mg kg-1): 5619 ng·h/mL
CL ([1]; IP, 10 mg kg-1): 28 mL/min/kg
Cmax ([1]; IP, 10 mg kg-1): 1263 ng/mL
T1/2 ([1]; IP, 10 mg kg-1): 2.41 h
Tmax ([1]; IP, 10 mg kg-1): 2.00 h
AUCinf ([1]; IV, 2 mg kg-1): 1253 ng·h/mL
AUClast ([1]; IV, 2 mg kg-1): 1242 ng·h/mL
CL ([1]; IV, 2 mg kg-1): 32.5 mL/min/kg
Cmax ([1]; IV, 2 mg kg-1): 2373 ng/mL
T1/2 ([1]; IV, 2 mg kg-1): 1.46 h
Tmax ([1]; IV, 2 mg kg-1): 0.08 h
Vss ([1]; IV, 2 mg kg-1): 1.8 L/kg
exposure (AUCinf) [1]: 6140 ng·h/mL
half-life (T1/2) [1]: 2.41 h
Bioluminescent signal 4 h after each of the three administrations ([2]; 35 mg kg^−1 IP): Consistent loss of bioluminescent signal
Total flux for each mouse [2, 3]: 4289000 and 889100 and 3230000 and 316100 and 985400
Total flux for each mouse [2, 4]: 49160000 and 34070000 and 76150000 and 45320000
Total flux for each mouse [2, 5]: 6613000 and 7583000 and 6309000 and 11170000 and 4709000
Total flux for each mouse [2, 6]: 5587000 and 3752000 and 2682000 and 8076000 and 3987000
Total flux for each mouse [2, 7]: 7807000 and 6324000 and 1630000 and 11780000 and 6875000

CC[C@H](C(=O)N1CCCC[C@H]1C(=O)O[C@H](CCc1ccc(OC)c(OC)c1)c1ccccc1OCC(=O)NCCCCCCC(=O)N[C@H](C(=O)N1C[C@H](O)C[C@H]1C(=O)N[C@@H](C)c1ccc(-c2scnc2C)cc1)C(C)(C)C)c1cc(OC)c(OC)c(OC)c1 [dTAG^V-1]
CL ([1]; IP, 2 mg kg-1): 10.7 mL/min/kg
CL ([1]; IP, 10 mg kg-1): 9.05 mL/min/kg
exposure (AUCinf) [1]: 18,517 h ng mL^−1
half-life (T1/2) [1]: 4.43 h
AUC(0-inf) [1, 8]: 3140 ng·h/mL
AUC(0-t) [1, 8]: 2240 ng·h/mL
half-life [1, 8]: 3.64 h
Cmax ([1]; male, C57BL/6J, mouse, plasma, IP, 2 mg kg-1, read-out: Cmax): 595 ng/mL
Tmax ([1]; male, C57BL/6J, mouse, plasma, IP, 2 mg kg-1, read-out: Tmax): 1.67 h
AUC(0-inf) [1, 9]: 18500 ng·h/mL
AUC(0-t) [1, 9]: 18100 ng·h/mL
half-life [1, 9]: 4.43 h
Cmax ([1]; male, C57BL/6J, mouse, plasma, IP, 10 mg kg-1, read-out: Cmax): 2120 ng/mL
Tmax ([1]; male, C57BL/6J, mouse, plasma, IP, 10 mg kg-1, read-out: Tmax): 2 h
AUC(0-inf) [1, 10]: 3330 ng·h/mL
AUC(0-t) [1, 10]: 3240 ng·h/mL
clearance [1, 10]: 10.1 mL/min/kg
half-life [1, 10]: 3.02 h
Cmax ([1]; male, C57BL/6J, mouse, plasma, IV, 2 mg kg-1, read-out: Cmax): 7780 ng/mL
Tmax ([1]; male, C57BL/6J, mouse, plasma, IV, 2 mg kg-1, read-out: Tmax): 0.08 h
Vd ([1]; male, C57BL/6J, mouse, plasma, IV, 2 mg kg-1, read-out: Vss): 0.56 L/kg
Bioluminescent signal 4 h after each of the three administrations ([2]; 35 mg kg^−1 IP): Consistent loss of bioluminescent signal
Bioluminescent signal 4 h after the first administration ([2]; 35 mg kg^−1 IP): Striking loss of bioluminescent signal
Duration of degradation ([2]; 35 mg kg^−1 IP, after the final administration): degradation evident 28 h after the final administration
Total flux for each mouse [2, 3]: 1893000 and 1330000 and 3116000 and 1809000 and 3338000
Total flux for each mouse [2, 4]: 601200 and 13590000 and 24710000 and 1755000 and 24650000
Total flux for each mouse [2, 5]: 4041000 and 2159000 and 3736000 and 2539000 and 5912000
Total flux for each mouse [2, 6]: 3135000 and 1001000 and 2876000 and 2693000 and 9211000
Total flux for each mouse [2, 7]: 4741000 and 1924000 and 4372000 and 3069000 and 6943000
